In patent publication US20240053368A1, “METHOD FOR EVALUATING BLOOD PARAMETERS” (SEDICIDODICI S.R.L., priority 2020, published 2024):

Tests used:
[1] = tested on: fibrin (fibrin formation); test: ex-vivo dynamic evaluation of the coagulation process in a whole-blood sample under flow: fibrin formation; design: species or system human; conditions: mean value
Source text: According to some embodiments, the method of the invention comprises the following steps: • a) providing a whole-blood sample taken from a subject and added with an anti-coagulant substance; • b) treating the blood sample of step a) with a solution consisting of fluorescent probes for marking platelets and fibrin capable of binding more or less specifically to platelets and fibrin and emitting fluorescent light on two different emission frequencies and of a recalcification solution of the blood sample. The two aforesaid solutions can also be combined in a single solution or single reagent; • c) introducing said recalcified blood sample into an analytical device having at least one perfusion chamber, in which at least one wall consists of a transparent material comprising a cytoadhesive substance, the blood sample being made to flow into the perfusion chamber in known and measurable flow conditions; • d) during the blood flow in the perfusion chamber, alternately acquiring at least two series of fluorescence images, so that at least one series of fluorescence images is acquired at an emission wavelength characteristic of the fluorescent probe for platelets and at least one other series of fluorescence images is acquired at another emission wavelength characteristic of the fluorescent probe for fibrin; • e) binarizing the pixels of the acquired images for the platelets and for the fibrin, so as to generate a first curve of area covered by illuminated pixels vs. time (t) for the formation of a platelet aggregate and a second curve of area covered by illuminated pixels vs. time for the fibrin formation; • f) generating a first curve of average fluorescence intensity vs. time for the formation of the platelet aggregate and a second curve of average fluorescence intensity vs. time for the fibrin formation; • the method further comprising at least one of the following steps: • g) generating a first integrated density curve defined as the product of area and fluorescence intensity vs. time for the formation of the platelet aggregate and a second integrated density curve defined as the product of area and fluorescence intensity vs. time for the fibrin formation; • h) generating a curve of particle number vs. time, in which the number of particles is given by the number of platelet aggregates consisting of more than 2 illuminated pixels; • i) generating a curve of particle size vs. time, in which the particle size is given by the average size of the platelet aggregates consisting of more than 2 illuminated pixels; • j) generating values of maximum slope, defined as the relative maximum points of the first derivative function calculated for the curves of the parameter obtained in one or more of steps e), f), g), h) and i); • k) generating values of maximum acceleration, defined as the relative maximum points of the second derivative function calculated for the curves of the parameter obtained in one or more of steps e), f), g), h) and i); • l) generating values of F/P ratio, defined as the ratio of the AUCs of fibrin to the AUCs of the platelets of the parameter obtained in one or more of steps e), f) and g); • the method further comprising the steps of: • m) generating a lag time value representing the fibrin formation time defined as the time corresponding to the first occurrence of five consecutive images in which the value of the measured area related to fibrin is >1% of the maximum peak value of the curve; • n) generating the AUC (Area Under the Curve) values given by the area under the curve of the parameter obtained in one or more of steps e), f), g), h) and i).
(§1) From a study carried out on healthy subjects not subjected to anticoagulant or antiplatelet therapy (controls), mean values of the parameters calculated as described above were obtained. […]

[2] = tested on: platelets (platelet aggregate formation); test: ex-vivo dynamic evaluation of the coagulation process in a whole-blood sample under flow: platelet aggregate formation; design: species or system human; conditions: mean value, blood of subjects under the therapy, 8-bit acquisition system
Source text: According to some embodiments, the method of the invention comprises the following steps: • a) providing a whole-blood sample taken from a subject and added with an anti-coagulant substance; • b) treating the blood sample of step a) with a solution consisting of fluorescent probes for marking platelets and fibrin capable of binding more or less specifically to platelets and fibrin and emitting fluorescent light on two different emission frequencies and of a recalcification solution of the blood sample. […]
as §1

CC(=O)Oc1ccccc1C(=O)O [ASA, acetylsalicylic acid]
F/P Area ([1]; AUC Area ratio of fibrin to platelets, subjects under the therapy): 1.0 | F/P ID ([1]; AUC ID ratio of fibrin to platelets, subjects under the therapy): 2.2 | F/P MGV ([1]; AUC MGV ratio of fibrin to platelets, subjects under the therapy): 1.2 | Fibrin AUC Area ([1]; blood of subjects under the therapy, area under the curve of the area curve, 8-bit acquisition system): 3.0 ×10^7 | Fibrin AUC MGV ([1]; blood of subjects under the therapy, area under the curve of the fluorescence intensity curve, 8-bit acquisition system): 2.0 ×10^4 | Fibrin AUC ID ([1]; blood of subjects under the therapy, area under the curve of the integrated density curve, 8-bit acquisition system): 4.3 ×10^9 | Platelets AUC Area ([2]; area under the curve of the area curve): 3.4 ×10^7 | Platelets AUC MGV ([2]; area under the curve of the fluorescence intensity curve): 2.0 ×10^4 | Platelets AUC ID ([2]; area under the curve of the integrated density curve): 3.0 ×10^9
